From US20110263588A1, “TRICYCLIC COMPOUNDS AS GLUTAMATE RECEPTOR MODULATORS” (GLAXO GROUP LIMITED, priority 2008, published 2011) come the findings set out here.

What is called IC50 is the concentration that inhibits the measured activity by half.

Read-outs that look alike come from different tables or passages of the source.

The assay concerns the target T1, human mGlu5 recombinant receptor (Homo sapiens, UniProt P41594).
T1 construct: expressed in transfected cells; host or cells: inducible CHO cell line stably expressing Aequorin (Euroscreen FAST); doxycycline-responsive promoter
Nature of the assay: mGluR5 calcium mobilization in inducible mGluR5 CHO cells (aequorin luminescence, antagonist mode). The format is cell-based. The following applies: antagonist activity against EC80 glutamate, inducible CHO cell line expressing human mGlu5 and Aequorin, read-out: IC50 (uM) Ca^++ flux. An excerpt: mGluR5 Calcium Mobilization in Inducible mGluR5 CHO Cells
To functionally measure mGluR5 calcium mobilization in response to agonists or antagonists, an inducible CHO cell line expressing the human mGlu5 recombinant receptor was used. This cell line also stably expressed Aequorin (Euroscreen FAST), a photoprotein that spontaneously couples with coelenterazine h when added exogenously in the cell media. The Aequorin-coelenterzine h complex undergoes a conformational change upon binding of calcium ions which results in the emission of blue light (wavelength 469 nm) that was measured using a Hamamatsu Functional Drug Screening System 6000.
mGluR5 expression was induced by a doxycycline responsive promoter by growing cells to mid-log phase for 18 hours in media without antibiotics and supplemented with doxycycline (600 ng/mL). Cells were detached from the plate by gentle flushing using PBS-EDTA (5 mM EDTA) and centrifuged for collection and resuspended in “assay buffer” (HBSS, 2.1 mM CaCl2, 2 ug/mL glutamate-pyruvate transaminase, 4 mM MEM sodium pyruvate, and 0.1% protease free BSA). Cells were incubated with coelenterazine h (Molecular Probes) at room temperature for 4 hours before testing.
To measure mGluR5 antagonist activity, cell suspensions containing test compound were mixed with EC80 glutamate and emission of light was recorded. Reference and test compounds were tested at several concentrations in duplicate to obtain dose response curves using the Prism GraphPad software (GraphPad Software Inc.). IC50 values were calculated from the dose response curves using the equation:
Y=Bottom+(Top−Bottom)/(1+10̂((LogEC50−X)*HillSlope)).
In general terms: Calcium assays in cells follow changes in intracellular calcium, usually with a dye or a luminescent sensor.

T1 sequence (P41594 21-1212): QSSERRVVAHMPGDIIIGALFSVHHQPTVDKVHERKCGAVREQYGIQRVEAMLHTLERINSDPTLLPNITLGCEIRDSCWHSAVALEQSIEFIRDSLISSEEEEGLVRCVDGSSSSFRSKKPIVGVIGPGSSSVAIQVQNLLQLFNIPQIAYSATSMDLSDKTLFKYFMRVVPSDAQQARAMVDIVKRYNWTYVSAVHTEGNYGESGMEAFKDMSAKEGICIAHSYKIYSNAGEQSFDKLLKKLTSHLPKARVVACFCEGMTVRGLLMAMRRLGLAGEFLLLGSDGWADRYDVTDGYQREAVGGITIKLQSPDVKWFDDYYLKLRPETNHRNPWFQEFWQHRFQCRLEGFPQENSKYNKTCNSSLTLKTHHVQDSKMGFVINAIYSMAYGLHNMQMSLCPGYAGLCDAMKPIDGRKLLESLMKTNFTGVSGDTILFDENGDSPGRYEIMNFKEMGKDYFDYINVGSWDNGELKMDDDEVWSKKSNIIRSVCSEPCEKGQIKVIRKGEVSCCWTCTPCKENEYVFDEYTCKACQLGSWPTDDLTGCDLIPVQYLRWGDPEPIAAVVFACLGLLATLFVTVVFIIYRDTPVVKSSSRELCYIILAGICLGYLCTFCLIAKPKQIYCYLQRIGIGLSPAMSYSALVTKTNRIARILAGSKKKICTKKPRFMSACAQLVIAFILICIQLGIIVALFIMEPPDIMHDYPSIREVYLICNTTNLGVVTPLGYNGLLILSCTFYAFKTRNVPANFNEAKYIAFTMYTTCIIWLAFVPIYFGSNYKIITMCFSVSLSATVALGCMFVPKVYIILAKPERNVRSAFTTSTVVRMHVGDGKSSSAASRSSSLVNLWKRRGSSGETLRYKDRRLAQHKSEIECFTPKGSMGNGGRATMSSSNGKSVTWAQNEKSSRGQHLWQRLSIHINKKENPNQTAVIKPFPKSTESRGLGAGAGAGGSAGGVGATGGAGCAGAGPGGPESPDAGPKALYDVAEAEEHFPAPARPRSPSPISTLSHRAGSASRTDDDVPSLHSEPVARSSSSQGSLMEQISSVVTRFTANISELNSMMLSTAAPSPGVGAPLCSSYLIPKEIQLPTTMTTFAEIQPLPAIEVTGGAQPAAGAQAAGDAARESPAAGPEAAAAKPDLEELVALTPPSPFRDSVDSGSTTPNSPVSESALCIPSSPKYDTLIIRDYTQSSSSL

As for `O=C(Nc1cccc(Cl)c1)c1noc2c1CSc1ccccc1-2` [N-(3-chlorophenyl)-4H-thiochromeno[3,4-d]isoxazole-3-carboxamide], the IC50 (Table 3) was less than 1 µM.
In the case of `Cn1nc(C(=O)Nc2cc(C#N)ccn2)c2c1-c1ccccc1OC2` [Example 8, N-(4-Cyanopyridin-2-yl)-1-methyl-1,4-dihydrochromeno[4,3-c]pyrazole-3-carboxamide], for the setting “Table 2”, the IC50 is more than 10 µM.
Turning to `Cn1nc(C(=O)Nc2cccc(C(F)(F)F)c2)c2c1-c1ccccc1OC2` [1-methyl-N-(3-(trifluoromethyl)phenyl)-1,4-dihydrochromeno[4,3-c]pyrazole-3-carboxamide], the half-inhibitory concentration (IC50) (Table 3) is more than 10 µM.
On the same count and under the same terms, to `Cn1nc(C(=O)Nc2ccc(F)c(Cl)c2)c2c1-c1ccccc1OC2` [N-(3-chloro-4-fluorophenyl)-1-methyl-1,4-dihydrochromeno[4,3-c]pyrazole-3-carboxamide] belongs more than 10 µM.
In the case of `Cn1nc(C2CCCN(C(=O)c3ccc(F)cc3)C2)c2c1-c1ccccc1CC2` (centres unmarked) [Example 25, (4-Fluorophenyl)(3-(1-methyl-4,5-dihydro-1H-benzo[g]indazol-3-yl)piperidin-1-yl)methanone], under “Table 2”, the IC50 is more than 10 µM.
